We go through four molecules from ChEMBL document CHEMBL1150468, “Sch 53823 and Sch 53825, novel fungal metabolites with phospholipase D inhibitory activity” (Bioorg Med Chem Lett, 1996).

As usually defined, the pIC50 is the negative decadic logarithm of the IC50, by convention in mol/L.

pIC50: −log10 of the molar value.

The nature of the test: In vitro inhibitory activity in the fMLP-stimulated phospholipase (PLD) assay.
Regarding `Oc1cccc2c1[C@@H](O)[C@H]1O[C@H]1C21Oc2cccc3cccc(c23)O1`, the pIC50 is 4.62.

Consider `CC(=O)Oc1c(Cl)ccc2c1[C@@H](OC(C)=O)[C@H]1O[C@H]1C21Oc2cccc3cccc(c23)O1`, for which the pIC50 is < 4.30.

As for `CC(=O)Oc1cccc2c1[C@@H](OC(C)=O)[C@H]1O[C@H]1C21Oc2cccc3cccc(c23)O1`, the pIC50 was 4.77.

Turning to `Oc1c(Cl)ccc2c1[C@@H](O)[C@H]1O[C@H]1C21Oc2cccc3cccc(c23)O1`, the pIC50 was 4.72. The pIC50 values of the last two molecules are within 0.2 log units of each other.
